{"source": "patent US12331041B2", "about": "“GLP-1 receptor agonists and uses thereof” (Pfizer Inc., priority 2018, dated 2025)", "key": {"human GLP-1R [1]": {"molecular_target": "T1, human GLP-1R (Homo sapiens, UniProt P43220, G168S)", "T1 construct": "expressed in transfected cells", "T1 sequence (P43220 24-463 G168S)": "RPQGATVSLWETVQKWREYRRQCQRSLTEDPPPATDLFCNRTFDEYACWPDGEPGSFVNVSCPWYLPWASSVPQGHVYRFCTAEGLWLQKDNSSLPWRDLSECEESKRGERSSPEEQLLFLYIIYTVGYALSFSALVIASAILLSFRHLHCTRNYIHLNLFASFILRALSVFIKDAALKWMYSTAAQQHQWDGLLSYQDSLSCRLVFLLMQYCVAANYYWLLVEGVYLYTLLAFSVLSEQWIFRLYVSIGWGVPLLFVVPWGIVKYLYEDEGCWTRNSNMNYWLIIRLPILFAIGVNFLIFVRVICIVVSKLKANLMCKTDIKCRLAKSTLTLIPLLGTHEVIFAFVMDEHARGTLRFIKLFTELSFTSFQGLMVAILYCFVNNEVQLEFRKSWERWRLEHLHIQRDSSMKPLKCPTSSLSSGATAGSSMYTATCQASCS", "test": "CHO GLP-1R Clone H6 - Assay 1 (HTRF cAMP agonist assay)", "format": "cell-based", "details": "for EC50: CHO Clone H6, high GLP-1R density, cAMP, geometric mean; for Emax / Assay 1 Emax (%): CHO Clone H6, relative to saturating full agonist GLP-1 7-36 (1 μM), arithmetic mean", "method_in_brief": "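CHO Clone H6 cells stably expressing human GLP-1R (G168S) were plated 48 h, then given compound for 30 min at 37° C in HBSS/0.1% BSA/HEPES with 100 μM IBMX and 1% DMSO. cAMP was measured by HTRF against a standard curve.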"}, "human GLP-1R [2]": {"molecular_target": "T2, human GLP-1R (Homo sapiens, UniProt P43220, L260F)", "T2 construct": "expressed in transfected cells; host or cells: CHO Flp-In T-REx, clonal line C6 (pcDNA5-FRT-TO)", "T2 sequence (P43220 24-463 L260F)": "as the sequence (P43220 24-463 G168S) above, with S145G, L237F counted along it", "test": "CHO GLP-1R Clone C6 - Assay 2 (HTRF cAMP agonist assay)", "format": "cell-based", "details": "for EC50: CHO clone C6, low GLP-1R density, cAMP, geometric mean"}, "[3]": {"details": "CHO clone C6, relative to saturating full agonist GLP-1 (1 μM), arithmetic mean"}}, "note": "Counter-ions that a name gives are not always drawn.", "data": [{"molecule": "C[C@@H]1CN(c2ccnc(OCc3ccc(Cl)cc3F)n2)CCN1Cc1nc2ccc(C(=O)O)cc2n1C[C@@H]1CCO1", "note": "[Example 75, ammonium 2-{[(2R)-4-{2-[(4-chloro-2-fluorobenzyl)oxy]pyrimidin-4-yl}-2-methylpiperazin-1-yl]methyl}-1-[(2S)-oxetan-2-ylmethyl]-1H-benzimidazole-6-carboxylate]", "values": [{"measurement": "EC50", "setting": "human GLP-1R [1]", "value": 21, "unit": "nM"}, {"measurement": "Emax", "setting": "human GLP-1R [1]", "value": 88, "unit": "%"}, {"measurement": "EC50", "setting": "human GLP-1R [2]", "value": 370, "unit": "nM"}, {"measurement": "Emax", "setting": "human GLP-1R [2]; [3]", "value": 100, "unit": "%"}]}, {"molecule": "N#Cc1ccc(COc2nc(N3CCC4(CC3)CC4c3nc4ccc(C(=O)O)cc4n3CC3CCO3)ccc2F)c(F)c1", "note": "(single isomer, unassigned; ent-2) [Example 53]", "values": [{"measurement": "EC50", "setting": "human GLP-1R [1]", "value": 0.57, "unit": "nM"}, {"measurement": "Assay 1 Emax (%)", "setting": "human GLP-1R [1]", "value": 83, "unit": "%"}, {"measurement": "EC50", "setting": "human GLP-1R [2]", "value": 14, "unit": "nM"}, {"measurement": "Assay 2 Emax (%)", "setting": "human GLP-1R [2]; [3]", "value": 90, "unit": "%"}]}, {"molecule": "O=C(O)c1ccc2nc(C3CC34CCN(c3nc(OCc5ccc(Cl)cc5F)ncc3F)CC4)n(Cc3cnco3)c2c1", "note": "(centres unmarked) [Example 45, 2-(6-{2-[(4-chloro-2-fluorobenzyl)oxy]-5-fluoropyrimidin-4-yl}-6-azaspiro[2.5]oct-1-yl)-1-(1,3-oxazol-5-ylmethyl)-1H-benzimidazole-6-carboxylic acid, trifluoroacetate salt, from P7]", "values": [{"measurement": "EC50", "setting": "human GLP-1R [1]", "value": 12, "unit": "nM"}, {"measurement": "Emax", "setting": "human GLP-1R [1]", "value": 72, "unit": "%"}, {"measurement": "EC50", "setting": "human GLP-1R [2]", "value": 230, "unit": "nM"}, {"measurement": "Emax", "setting": "human GLP-1R [2]; [3]", "value": 83, "unit": "%"}]}, {"molecule": "O=C(O)c1ccc2nc(CN3CCC(c4ccnc(OCc5ccc(Cl)cc5F)n4)CC3)n(Cc3ncco3)c2c1", "note": "[Example 68, 2-[(4-{2-[(4-chloro-2-fluorobenzyl)oxy]pyrimidin-4-yl}piperidin-1-yl)methyl]-1-(1,3-oxazol-2-ylmethyl)-1H-benzimidazole-6-carboxylic acid, trifluoroacetate salt]", "values": [{"measurement": "EC50", "setting": "human GLP-1R [1]", "value": 8.3, "unit": "nM"}, {"measurement": "Emax", "setting": "human GLP-1R [1]", "value": 77, "unit": "%"}, {"measurement": "EC50", "setting": "human GLP-1R [2]", "value": 310, "unit": "nM"}, {"measurement": "Emax", "setting": "human GLP-1R [2]; [3]", "value": 92, "unit": "%"}]}, {"molecule": "O=C(O)c1ccc2nc(CN3CCC(c4cccnc4OCc4ccc(Cl)cc4F)CC3)n(Cc3cnco3)c2c1", "note": "[Example 6, 2-[(4-{2-[(4-chloro-2-fluorobenzyl)oxy]pyridin-3-yl}piperidin-1-yl)methyl]-1-(1,3-oxazol-5-ylmethyl)-1H-benzimidazole-6-carboxylic acid, trifluoroacetate salt]", "values": [{"measurement": "EC50", "setting": "human GLP-1R [1]", "value": 4.5, "unit": "nM"}, {"measurement": "Emax", "setting": "human GLP-1R [1]", "value": 68, "unit": "%"}, {"measurement": "EC50", "setting": "human GLP-1R [2]", "value": 84, "unit": "nM"}, {"measurement": "Emax", "setting": "human GLP-1R [2]; [3]", "value": 83, "unit": "%"}]}, {"molecule": "Cn1cncc1Cn1c(CN2CCC(c3cccnc3OCc3ccc(Cl)cc3F)CC2)nc2ccc(C(=O)O)cc21", "note": "[Example 11, 2-[(4-{2-[(4-chloro-2-fluorobenzyl)oxy]pyridin-3-yl}piperidin-1-yl)methyl]-1-[(1-methyl-1H-imidazol-5-yl)methyl]-1H-benzimidazole-6-carboxylic acid, trifluoroacetate salt]", "values": [{"measurement": "EC50", "setting": "human GLP-1R [1]", "value": 1.9, "unit": "nM"}, {"measurement": "Emax", "setting": "human GLP-1R [1]", "value": 83, "unit": "%"}, {"measurement": "EC50", "setting": "human GLP-1R [2]", "value": 49, "unit": "nM"}, {"measurement": "Emax", "setting": "human GLP-1R [2]; [3]", "value": 100, "unit": "%"}]}, {"molecule": "COCCn1c(C2CC23CCN(c2ccnc(OCc4ccc(Cl)cc4F)n2)CC3)nc2ccc(C(=O)O)cc21", "note": "(single isomer, unassigned; ent-2) [Example 47, Ammonium 2-(6-{2-[(4-chloro-2-fluorobenzyl)oxy]pyrimidin-4-yl}-6-azaspiro[2.5]oct-1-yl)-1-(2-methoxyethyl)-1H-benzimidazole-6-carboxylate, ENT-2]", "values": [{"measurement": "EC50", "setting": "human GLP-1R [1]", "value": 86, "unit": "nM"}, {"measurement": "Assay 1 Emax (%)", "setting": "human GLP-1R [1]", "value": 92, "unit": "%"}, {"measurement": "EC50", "setting": "human GLP-1R [2]", "value": 1700, "unit": "nM"}, {"measurement": "Emax", "setting": "human GLP-1R [2]; [3]", "value": 100, "unit": "%"}]}, {"molecule": "Cn1cncc1Cn1c(C2CC23CCN(c2cccc(OCc4ccc(C#N)cc4F)n2)CC3)nc2ccc(C(=O)O)cc21", "note": "(centres unmarked) [Example 37, 2-(6-{6-[(4-cyano-2-fluorobenzyl)oxy]pyridin-2-yl}-6-azaspiro[2.5]oct-1-yl)-1-[(1-methyl-1H-imidazol-5-yl)methyl]-1H-benzimidazole-6-carboxylic acid, trifluoroacetate salt]", "values": [{"measurement": "EC50", "setting": "human GLP-1R [1]", "value": 9.3, "unit": "nM"}, {"measurement": "Emax", "setting": "human GLP-1R [1]", "value": 88, "unit": "%"}, {"measurement": "EC50", "setting": "human GLP-1R [2]", "value": 190, "unit": "nM"}, {"measurement": "Emax", "setting": "human GLP-1R [2]; [3]", "value": 92, "unit": "%"}]}, {"molecule": "O=C(O)c1ccc2nc(CC3CCC(c4cccc(OCc5ccc(Cl)cc5F)n4)CC3)n(C[C@@H]3CCO3)c2c1", "note": "(single isomer, unassigned; isomer 1) [Example 79]", "values": [{"measurement": "EC50", "setting": "human GLP-1R [1]", "value": "> 12000", "unit": "nM"}, {"measurement": "EC50", "setting": "human GLP-1R [2]", "value": "> 20000", "unit": "nM"}]}, {"molecule": "Cn1c(C2CC23CCN(c2nc(OCc4ccc(Cl)cc4F)ncc2F)CC3)nc2ccc(C(=O)O)nc21", "note": "(centres unmarked) [Example 40, 2-(6-{2-[(4-chloro-2-fluorobenzyl)oxy]-5-fluoropyrimidin-4-yl}-6-azaspiro[2.5]oct-1-yl)-3-methyl-3H-imidazo[4,5-b]pyridine-5-carboxylic acid, trifluoroacetate salt, from P7]", "values": [{"measurement": "EC50", "setting": "human GLP-1R [1]", "value": 150, "unit": "nM"}, {"measurement": "Emax", "setting": "human GLP-1R [1]", "value": 77, "unit": "%"}, {"measurement": "EC50", "setting": "human GLP-1R [2]", "value": 2000, "unit": "nM"}, {"measurement": "Emax", "setting": "human GLP-1R [2]; [3]", "value": 100, "unit": "%"}]}, {"molecule": "CCn1cncc1Cn1c(CN2CCC(c3cccnc3OCc3ccc(Cl)cc3F)CC2)nc2ccc(C(=O)O)nc21", "note": "[Example 15, 2-[(4-{2-[(4-chloro-2-fluorobenzyl)oxy]pyridin-3-yl}piperidin-1-yl)methyl]-3-[(1-ethyl-1H-imidazol-5-yl)methyl]-3H-imidazo[4,5-b]pyridine-5-carboxylic acid, trifluoroacetate salt]", "values": [{"measurement": "EC50", "setting": "human GLP-1R [1]", "value": 0.96, "unit": "nM"}, {"measurement": "Emax", "setting": "human GLP-1R [1]", "value": 81, "unit": "%"}, {"measurement": "EC50", "setting": "human GLP-1R [2]", "value": 21, "unit": "nM"}, {"measurement": "Emax", "setting": "human GLP-1R [2]; [3]", "value": 91, "unit": "%"}]}, {"molecule": "Cn1c(CN2CCC(c3nccnc3OCc3ccc(Cl)cc3F)CC2)nc2ncc(C(=O)O)cc21", "note": "[Example 30, 2-[(4-{3-[(4-chloro-2-fluorobenzyl)oxy]pyrazin-2-yl}piperidin-1-yl)methyl]-1-methyl-1H-imidazo[4,5-b]pyridine-6-carboxylic acid, hydrochloride salt]", "values": [{"measurement": "EC50", "setting": "human GLP-1R [1]", "value": 140, "unit": "nM"}, {"measurement": "Emax", "setting": "human GLP-1R [1]", "value": 79, "unit": "%"}, {"measurement": "EC50", "setting": "human GLP-1R [2]", "value": 2800, "unit": "nM"}, {"measurement": "Emax", "setting": "human GLP-1R [2]; [3]", "value": 110, "unit": "%"}]}, {"molecule": "C[C@H]1CN(c2ccnc(OCc3ccc(Cl)cc3F)n2)CCN1Cc1nc2ccc(C(=O)O)cc2n1Cc1ncco1", "note": "[Example 78, 2-{[(2S)-4-{2-[(4-chloro-2-fluorobenzyl)oxy]pyrimidin-4-yl}-2-methylpiperazin-1-yl]methyl}-1-(1,3-oxazol-2-ylmethyl)-1H-benzimidazole-6-carboxylic acid, trifluoroacetate salt]", "values": [{"measurement": "EC50", "setting": "human GLP-1R [1]", "value": 17, "unit": "nM"}, {"measurement": "Emax", "setting": "human GLP-1R [1]", "value": 79, "unit": "%"}, {"measurement": "EC50", "setting": "human GLP-1R [2]", "value": 440, "unit": "nM"}, {"measurement": "Emax", "setting": "human GLP-1R [2]; [3]", "value": 81, "unit": "%"}]}, {"molecule": "CCn1cncc1Cn1c(C2CC23CCN(c2nc(OCc4ccc(Cl)cc4F)ncc2F)CC3)nc2ccc(C(=O)O)cc21", "note": "(centres unmarked) [Example 39, 2-(6-{2-[(4-chloro-2-fluorobenzyl)oxy]-5-fluoropyrimidin-4-yl}-6-azaspiro[2.5]oct-1-yl)-1-[(1-ethyl-1H-imidazol-5-yl)methyl]-1H-benzimidazole-6-carboxylic acid, trifluoroacetate salt, from P7]", "values": [{"measurement": "EC50", "setting": "human GLP-1R [1]", "value": 1.6, "unit": "nM"}, {"measurement": "Emax", "setting": "human GLP-1R [1]", "value": 90, "unit": "%"}, {"measurement": "EC50", "setting": "human GLP-1R [2]", "value": 29, "unit": "nM"}, {"measurement": "Emax", "setting": "human GLP-1R [2]; [3]", "value": 95, "unit": "%"}]}, {"molecule": "O=C(O)c1ccc2nc(CN3CCC(c4nccnc4OCc4ccc(Cl)cc4F)CC3)n(Cc3cnco3)c2c1", "note": "[Example 24, 2-[(4-{3-[(4-chloro-2-fluorobenzyl)oxy]pyrazin-2-yl}piperidin-1-yl)methyl]-1-(1,3-oxazol-5-ylmethyl)-1H-benzimidazole-6-carboxylic acid, trifluoroacetate salt]", "values": [{"measurement": "EC50", "setting": "human GLP-1R [1]", "value": 2, "unit": "nM"}, {"measurement": "Emax", "setting": "human GLP-1R [1]", "value": 76, "unit": "%"}, {"measurement": "EC50", "setting": "human GLP-1R [2]", "value": 33, "unit": "nM"}, {"measurement": "Emax", "setting": "human GLP-1R [2]; [3]", "value": 89, "unit": "%"}]}, {"molecule": "Cn1cncc1Cn1c(CN2CCC(c3nccnc3OCc3ccc(Cl)cc3F)CC2)nc2ccc(C(=O)O)cc21", "note": "[Example 26, 2-[(4-{3-[(4-chloro-2-fluorobenzyl)oxy]pyrazin-2-yl}piperidin-1-yl)methyl]-1-[(1-methyl-1H-imidazol-5-yl)methyl]-1H-benzimidazole-6-carboxylic acid, trifluoroacetate salt]", "values": [{"measurement": "EC50", "setting": "human GLP-1R [1]", "value": 5.1, "unit": "nM"}, {"measurement": "Emax", "setting": "human GLP-1R [1]", "value": 86, "unit": "%"}, {"measurement": "EC50", "setting": "human GLP-1R [2]", "value": 38, "unit": "nM"}, {"measurement": "Emax", "setting": "human GLP-1R [2]; [3]", "value": 86, "unit": "%"}]}]}
